Laboratory results as given in patent US20110318266A1, “PHTHALIMIDE DERIVATIVE METABOTROPIC GLUTAMATE R4 LIGANDS” (priority 2008, published 2011).

How the values were obtained:
[1] = molecular target: T1, mGluR4 (Homo sapiens, UniProt Q14833); assay: Fluorescent Plate Imaging Reader (FLIPR) Assay for mGluR4 Potentiators; assay type: cell-based; parameters: expressed in transfected cells; conditions: for Emax: maximal activity relative to response with saturating concentration (10 uM) of agonist L-AP4, read-out: mGlu4 FLIPR % Max Efficacy; for EC50: potentiator response with EC10 concentration of L-AP4 (30 nM), inflection point of the curve, read-out: mGluR4 FLIPR Potency
Protocol: Cells are grown in Corning T162 cm^2 flasks in DMEM growth media at 37° C. and 5% CO2. Growth media contains: Gibco DMEM supplemented with 10% defined FBS, 1% GlutaMax −1, 1% sodium pyruvate, 1% NEAA, 1% Pen/Strep, 250 ug/ml zeocin, 25 mM HEPES, 0.1% 2-Mercaptoethanol, 600 ug/ml Hygromycin B, 7.5 ug/ml blasticidin, and 5 ug/ml puromycin.
The day prior to the experiment the cells were plated in growth medium (minus glutamine) at 50K cells/well into Becton-Dickinson 384-well PDL-coated plates using a Labsystems Multidrop (0.1 ml/well). The cells are grown overnight at 37° C. and 6% CO2.
The following day, the cells are washed with Assay Buffer at 37° C. using a Skatron EMBLA cell washer (3×100 μl, aspiration 3 mm from bottom will leave 30 μl of buffer in each well). Assay buffer is Hanks balanced salt solution with 20 mM HEPES, 2.5 mM probenecid and 0.1% BSA.
Fluorescent dye, 30 μl of the diluted Fluo-4-AM, is added to each well of the plate. The Fluo-4-AM solution is added to achieve a final concentration in the assay of 2 uM Fluo-4-AM, 0.02% pluronic acid and 1% FBS. The assay plates are placed back into the 6% CO2 incubator and incubated at 37° C. for 60 min. The 384-well plates are washed with Assay Buffer at 37° C. on using a cell washer (3×100 μl, aspiration 3 mm from bottom, will leave 30 μl of buffer in each well). The experimental run is initiated and after 30 sec a dose of test compound is applied. The fluorescent response elicited by test compound is monitored for 5 min, any positive response detected at this stage is attributed to agonist properties of the test compound. At this point an EC10 concentration of the mGluR4 agonist L-AP4 ((S)-2-amino-4-phosphonobutanoate) (final concentration 30 nM) is added and the fluorescent response is monitored for an additional 3 minutes, any positive response detected at this stage is attributed to potentiator properties of the test compound.
Controls for the assay include a no compound control, a positive control which is a saturating concentration, 10 uM, of the agonist L-AP4. A 10 point dose response, with either 2-fold or 3-fold dilution steps, is performed and curve fitting algorithms, suitable for a sigmoidal dose response relationship, are used to fit the data. The inflection point of the curve provides a measure of compound potency.
A comparison of the maximal level of activity achieved for a test compound, relative to the response achieved with a saturating concentration of the agonist L-AP4 provides a measure of compound efficacy.

[2] = molecular target: T1, mGluR4; assay: mGluR4 Binding Assay; parameters: expressed in transfected cells; host or cells: CHO cells; conditions: membranes from CHO cells expressing human mGluR4; 20 uM L-AP4; 7 nM radiotracer [3H]-N-(4-{[(2-Chlorophenyl)amino]sulfonyl}phenyl)pyridine-2-carboxamide
Protocol: Membranes were prepared from CHO cells expressing the human mGluR4 receptor. Cells were harvested using trypsin and then washed in assay buffer, assay buffer contains 50 mM HEPES, 1 mM EDTA and protease inhibitors (Boehringer Mannheim catalog #1 836 170). Harvested cells were pelleted by centrifugation and stored at −80° C. for a minimum of 12 hours. Cells were resuspended in assay buffer and lysed by a polytron, a low speed spin, 2000×g for 10 min, was used to recover unbroken cells for additional treatment using the polytron. The cleared supernatant from the low speed spins was subjected to a high speed spin, 96,000×g for 1 hour. The membrane pellet from the high speed spin was resuspended in assay buffer and used in the mGluR4 binding assay.
The binding assay follows a standard filtration binding paradigm. The binding buffer consists of 20 mM HEPES, 100 mM NaCl and 3 mM MgCl2, the pH of the buffer is 7.4. The assay is performed in a 96-well format with each well containing test compound, 25 to 50 ug of membrane protein, 20 uM L-AP4, and 7 nM radiotracer, [^3H]—N-(4-{[(2-Chlorophenyl)amino]sulfonyl}phenyl)pyridine-2-carboxamide, which is disclosed in commonly owned U.S. patent application docket no.
The binding reaction is incubated at room temperature for 1 hour, and then is passed through GF/B filter that was presoaked with 0.5% PEI. The cell membranes are collected on the filter and then washed five times with ˜5 ml ice cold binding buffer that contains 0.01% BSA. The washed filter plate is dried for 30 minutes at 37° C., scintillation fluid is added, and the amount of filter bound radioactivity is determined using a TopCount instrument. […] To determine the level of non-specific binding for the radiotracer [^3H]—N-(4-{[(2-Chlorophenyl)amino]sulfonyl}phenyl)pyridine-2-carboxamide, 5 uM of unlabeled [^3H]—N-(4-{[(2-Chlorophenyl)amino]sulfonyl}phenyl)pyridine-2-carboxamide is added to determine the level of non-specific binding. […]

T1 sequence (Q14833 33-912): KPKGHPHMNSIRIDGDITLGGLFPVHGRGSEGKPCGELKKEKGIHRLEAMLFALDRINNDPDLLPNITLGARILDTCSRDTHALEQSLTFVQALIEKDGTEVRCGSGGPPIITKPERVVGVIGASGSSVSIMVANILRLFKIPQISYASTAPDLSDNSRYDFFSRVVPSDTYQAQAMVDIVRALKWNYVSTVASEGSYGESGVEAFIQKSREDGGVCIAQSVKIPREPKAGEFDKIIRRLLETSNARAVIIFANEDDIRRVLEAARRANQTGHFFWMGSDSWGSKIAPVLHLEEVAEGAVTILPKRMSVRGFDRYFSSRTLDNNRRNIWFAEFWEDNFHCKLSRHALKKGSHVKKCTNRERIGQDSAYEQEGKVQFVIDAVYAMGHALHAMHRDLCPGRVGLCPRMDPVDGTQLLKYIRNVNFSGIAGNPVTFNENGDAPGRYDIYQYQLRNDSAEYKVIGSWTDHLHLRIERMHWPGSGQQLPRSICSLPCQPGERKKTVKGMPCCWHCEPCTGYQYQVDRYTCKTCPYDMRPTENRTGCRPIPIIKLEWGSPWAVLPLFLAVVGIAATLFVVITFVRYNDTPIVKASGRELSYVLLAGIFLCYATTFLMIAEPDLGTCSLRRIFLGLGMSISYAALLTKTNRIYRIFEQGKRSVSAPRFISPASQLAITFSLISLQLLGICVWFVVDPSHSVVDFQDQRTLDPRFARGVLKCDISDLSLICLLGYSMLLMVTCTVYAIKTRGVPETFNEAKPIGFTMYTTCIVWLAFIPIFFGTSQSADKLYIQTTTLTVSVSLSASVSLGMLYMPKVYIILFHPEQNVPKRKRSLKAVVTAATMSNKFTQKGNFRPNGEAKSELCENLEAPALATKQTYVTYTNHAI

**Q.** What does the source list for `Cc1cc(NC(=O)c2ccccn2)ccc1N1C(=O)c2ccccc2C1=O` [Example 3, N-[4-(1,3-dioxo-1,3-dihydro-2H-isoindol-2-yl)-3-methylphenyl]pyridine-2-carboxamide]?
**A.** Emax [1]: 104%; EC50 [1]: 0.39 µM; IC50 [2]: 1.72 µM

**Q.** What does the source list for `Cc1cccc2c1C(=O)N(c1ccc(NC(=O)c3ccccn3)cc1Cl)C2=O` [Example 13, N-[3-chloro-4-(4-methyl-1,3-dioxo-1,3-dihydro-2H-isoindol-2-yl)phenyl]pyridine-2-carboxamide]?
**A.** Emax [1]: 125%; EC50 [1]: 0.0436 µM

**Q.** Which Emax [1] does the source give for `O=C(Nc1ccc(N2C(=O)c3ccccc3C2=O)cc1)c1ccccn1` [Example 1, N-[4-(1,3-dioxo-1,3-dihydro-2H-isoindol-2-yl)phenyl]pyridine-2-carboxamide] here?
**A.** 52%

**Q.** What about the EC50 [1] of the same molecule?
**A.** 0.341 µM

**Q.** And the IC50 [2]?
**A.** 0.712 µM

**Q.** With `O=C(Nc1ccc(N2C(=O)c3cccc(F)c3C2=O)c(Cl)c1)c1ccccn1` [Example 10, N-[3-chloro-4-(4-fluoro-1,3-dioxo-1,3-dihydro-2H-isoindol-2-yl)phenyl]pyridine-2-carboxamide] as the molecule, how does the Emax [1] read?
**A.** 110%

**Q.** What about the EC50 [1] of the same molecule?
**A.** 0.0504 µM

**Q.** For `Cc1cccc2c1C(=O)N(c1ccc(NC(=O)c3ccccn3)cc1Br)C2=O` [Example 29, N-[3-bromo-4-(4-methyl-1,3-dioxo-1,3-dihydro-2H-isoindol-2-yl)phenyl]pyridine-2-carboxamide], which Emax [1] is on record?
**A.** 109%

**Q.** What about the EC50 [1] of the same molecule?
**A.** 0.101 µM

**Q.** What about the IC50 [2] of the same molecule?
**A.** 0.012 µM
